Assays:
[1] = tested on: L1210; test: Inhibitory dose for L1210 cells in culture. Not tested at higher concentrations because of their limited solubility; assay type: functional; conditions: Mus musculus, read-out: ID50 (the source's name)
[2] = target: Thymidylate synthase (Mus musculus) (UniProt P07607)
Thymidylate synthase (Mus musculus), sequence (P07607 whole entry, looked up): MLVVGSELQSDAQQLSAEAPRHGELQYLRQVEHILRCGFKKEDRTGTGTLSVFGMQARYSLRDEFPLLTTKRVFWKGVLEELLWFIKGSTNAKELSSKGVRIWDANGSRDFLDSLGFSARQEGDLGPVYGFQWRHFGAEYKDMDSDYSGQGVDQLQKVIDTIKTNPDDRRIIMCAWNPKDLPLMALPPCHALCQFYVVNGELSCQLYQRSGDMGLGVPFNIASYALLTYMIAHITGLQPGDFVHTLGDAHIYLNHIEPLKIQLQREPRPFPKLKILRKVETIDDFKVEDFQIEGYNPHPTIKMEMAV
Description: Inverse relative potency for the inhibition of L1210 thymidylate synthase

SMILES	IC50 [1] [µM]	Potency [2]
C#CCN(Cc1ccc2nc(N)nc(O)c2c1)c1ccc(C(=O)NC(CC(=O)O)C(=O)O)cc1 (stereo not drawn)	> 137	8.9
C#CCN(Cc1ccc2nc(N)nc(O)c2c1)c1ccc(C(=O)O)cc1	> 200	84
C#CCN(Cc1ccc2nc(N)nc(O)c2c1)c1ccc(C(=O)NCC(=O)O)cc1	> 100	20.7

The next lines start with the values.

IC50 [1] [µM]	Potency [2]	SMILES
52	> 62	C#CCN(Cc1ccc2nc(N)nc(O)c2c1)c1ccc(C(=O)NC(CCC(=O)OCC)C(=O)OCC)cc1 (stereo not drawn)
> 10	5.2	C#CCN(Cc1ccc2nc(N)nc(O)c2c1)c1ccc(C(=O)NC(C)C(=O)O)cc1 (stereo not drawn)
> 10	333	C#CCN(Cc1ccc2nc(N)nc(O)c2c1)c1ccc(CCCC(=O)O)cc1
5		C#CCN(Cc1ccc2[nH]c(N)nc(=O)c2c1)c1ccc(C(=O)NC(CCC(=O)O)C(=O)O)cc1 (stereo not drawn)
